Source: patent US7771711B2, “Sphingolipids' polyalkylamines conjugates” (Yissum Research Development Company of The Hebrew …, priority 2003, dated 2010)
Counter-ions that a name gives are not always drawn.

Experiments:
[1] = Assembly size by dynamic light scattering (ALV back scattering); format: physicochemical
[2] = Electrostatics from dissociation curve of bilayer-incorporated hydroxycoumarin probes (HCPE, C17HC); format: physicochemical; conditions: for pKa C17HC: apparent pKa of hydroxycoumarin probe C17HC incorporated in the assemblies; for Surface potential C17HC / Surface potential HCPE: from shift of pKa of HC, Boltzmann equation; for Surface potential C17HC / Surface pH C17HC: probe C17HC; for pKa HCPE: apparent pKa of hydroxycoumarin probe HCPE incorporated in the assemblies; for Surface potential HCPE / Surface pH HCPE: probe HCPE
Procedure: The fluorescence excitation of the fluorophore 7-hydroxycoumarin (HC) moieties at 405 nm for HCPE and 380 nm for C17HC reflects the amount of the ionized species, while the excitation at 370 nm for HCPE and 330 nm for C17HC is the pH-independent isosbestic point, reflects the total amount of probe in the liposomes and micelles. Fluorescence emission was determined at 450 nm for all the above excitations. These two ratios (405/370 for HCPE, and 380/330 for C17HC) give the degree of ionization of HC fluoropore. The titration curve of HC, which is generated by plotting fluorescence excitation intensity ratio I405/I370 for HCPE and I380/I330 for C17HC at broad range of bulk pH, enables to calculate the apparent pKa of HC in HCPE and C17HC, respectively. The pKa of HC in the liposomal bilayer and/or in the micelles is calculated by fitting the above titration curve to the modified Henderson -Hasselbach equation, as described before [Zuidam & Barenholz (1997) ibid.]. The surface potential is then determined from the shift of pKa of HC that dramatically occurs in the strongly basic environment of cationic bilayer, according to the Boltzmann equation [Zuidam & Barenholz (1997) ibid.]

[3] = ζ-potential by Zetasizer in 10 mM NaCl; format: physicochemical; conditions: 25° C., 10 mM NaCl (pH 6.7)
Procedure: Liposomes' and micelles' ζ-potential was measured at 25° C. by the mobility of the particles in the applied electrical field using a Zetasizer 3000 HAS, Malvern Instruments, Malvern, UK, by diluting an aliquot of 40 μL in 20 mL of 10 mM NaCl (pH 6.7) and passing the solutions before measurement through a 0.2-μm syringe filter (Minisart, Sartorius, Germany). ζ-potential reflects the electrical potential at the plane of sheer (further away from the actual surface), which is sensed by the HCPE and C17HC.

[4] = DPH fluorescence increase upon aggregation
Procedure: DPH dissolved in fetrahydrofuran was added at concentration of 0.25 ml %, to a range of concentrations of lipid dispersions and the fluorescence was recorded using 360 nm excitation and 430 nm emission on Perkin Elmer LS-50B. Then the fluorescence was plotted as function of lipid concentrations, and CMC point was detected as change of the slope of the curve by intersection of two straight lines above or below the CMC region.

[5] = Follow up (storage) assays of CCS lipid assemblies in HEPES pH 7.4 at 4° C.; format: physicochemical
Procedure: FIGS. 3A-3D show the results of the different follow up assays (follow up for 23 days). The follow up assay were based on TNBS test, which is a quantitative assay based on color reaction of TNBS reagent with primary amines.
The level of primary amines was determined with storage time in TNBS binding and described as % of freshly hydrated preparation. The change in Zeta potential, the change in the HCPE fluorescence 450 nm/370 mnm excitation ratio, and the change in size of the lipid assemblies (liposomes or micelles) formed was determined.
At 21 day, there were 6 time points of storage, which were assayed simultaneously for the following parameters: […]

[6] = Level of hydration by Laurdan excitation general polarization; format: physicochemical; conditions: 20 mM HEPES pH 7.4, 25° C.
Procedure: Hydration level of the different CCS-based lipid assemblies before and after the addition of plasmid DNA was determined by monitoring changes of “Laurdan excitation general polarization” according to which the higher the value obtained, the lower is the level of hydration.
6-Dodecanoyl-2-dimethylaminonaphthalene (Laurdan), purchased from Lambda (Graz, Austria), was used to follow changes in hydration level of the liposome bilayer. The naphthalene fluorophore of this probe is located at the hydrophilichydrophobic interface of the bilayer, and its 12-carbon chain is aligned parallel to the bilayer lipid acyl chains. When associated with lipids, Laurdan excitation and emission spectra depend strongly on the phase of the lipid. […] The lipid phases and level of hydration can be described by a Laurdan steady-state fluorescence parameter referred to as generalized polarization (GP) [Hirsch-Lerner D, Barenholz Y. Biochim Biophys Acta. […] Laurdan GP fluorescence spectra in lipid vesicles are dependent on the number of water molecules around the fluorescent moiety of Laurdan. Excitation GP was calculated according to the expression: GP340=(I440−I490)/(I440+I490) (1) where I440 and I490 are the intensities of fluorescence emission at wavelengths 440 and 490 nm and the excitation wavelength 340 nm. […]

[7] = base
[8] = listed as CCS Acetate (micelles)
[9] = listed as CCS Chloride (micelles)

With `CCCCCCCCCCCCC/C=C/[C@@H](O)[C@H](COC(=O)NCCCNCCCCNCCCN)NC(=O)CCCCCCCCCCCCCCC` [CCS Acetate salt, N-palmitoyl D-erythro sphingosyl-1-carbamoyl spermine] the “Assembly size, diameter (mass-weight)” value [1] was “micelles 6 nm;”, the “pKa C17HC” value [2, 8] was 4.75 and the “Surface potential C17HC” value [2, 8] was 245.8 mV. The “Surface pH C17HC” value [2, 8] was 11.5, the ζ-potential [3, 8] was 40 and the “Critical Micelle Concentration (CMC)” value [4] was 5 µM.
With `CCCCCCCCCCCCC/C=C/[C@@H](O)[C@H](COC(=O)NCCCNCCCCNCCCN)NC(=O)CCCCCCCCCCCCCCC` [CCS non-protonated, N-palmitoyl D-erythro sphingosyl-1-carbamoyl spermine] the “pKa HCPE” value [2] was 7.23, the “Surface potential HCPE” value [2] was 203.06 mV and the “Surface pH HCPE” value [2] was 10.87. It also gave a ζ-potential [3] of 34.
In the case of `CCCCCCCCCCCCC/C=C/[C@@H](O)[C@H](COC(=O)NCCCNCCCCNCCCN)NC(=O)CCCCCCCCCCCCCCC` [CCS Chloride salt, N-palmitoyl D-erythro sphingosyl-1-carbamoyl spermine], the “Assembly size, diameter (mass-weight)” value [1] is reported as “micelles 25 nm;”, the “pKa C17HC” value [2, 9] is reported as 5.61 and the “pKa HCPE” value [2, 9] is reported as 6.56. The “Surface potential C17HC” value [2, 9] was 195.4 mV, the “Surface potential HCPE” value [2, 9] was 242.3 mV and the “Surface pH C17HC” value [2, 9] was 10.64. The “Surface pH HCPE” value [2, 9] was 11.54, the ζ-potential [3, 9] was 46.5 and the “Critical Micelle Concentration (CMC)” value [4] was 5 µM.
With `CCCCCCCCCCCCC/C=C/[C@@H](O)[C@H](COC(=O)NCCCNCCCCNCCCN)NC(=O)CCCCCCCCCCCCCCC` [CCS, N-palmitoyl D-erythro sphingosyl-1-carbamoyl spermine] the “Zeta potential during storage” value ([5]; HEPES buffer pH 7.4, 4° C., 23 days) was “no substantial change”, the “Change in time in diameter of lipid assemblies during storage” value ([5]; HEPES pH 7.4, 4° C.) was “remained relatively small” and the “Period of chemical stability of dispersions in aqueous phase” value ([5]; HEPES pH 7.4, 4° C.) was “at least 23 days”. The “Surface pH and electrical surface potential over storage (HCPE 405/370 excitation ratio)” value ([5]; HEPES pH 7.4, 4° C., entire period of storage) was “unchanged”, the “Level of primary amines upon storage (TNBS binding)” value ([5]; HEPES pH 7.4, 4° C., follow up for 23 days) was “no substantial change” and the “Hydration state before addition of DNA (Laurdan GP)” value [6] was “high hydration state”. For the same molecule, the “Hydration state upon addition of DNA (Laurdan GP)” value ([6]; formation of lipoplexes) was “become dehydrated” and the Solubility in ethanol [7] was “exhibited”.
